Experimental data as given in PubChem BioAssay (NCI).
“And” between values parts separate entries of the source, which are not always exact repeats. Equal entries are not always repeated.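 Assay format: 96-well plates, 48-hour exposure. GI50 marks 50% less growth. TGI: concentration producing complete growth inhibition.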

Experiments:
Test in all cases: NCI-60 cell line screen, 48 h
[1] = tested on: 786-0 renal
[2] = tested on: A498 renal
[3] = tested on: A549 NSCLC
[4] = tested on: ACHN renal
[5] = tested on: BT-549 breast
[6] = tested on: CAKI-1 renal
[7] = tested on: CCRF-CEM leukemia
[8] = tested on: COLO 205 colon
[9] = tested on: DU-145 prostate
[10] = tested on: HCC-2998 colon
[11] = tested on: HCT-116 colon
[12] = tested on: HCT-15 colon
[13] = tested on: HL-60(TB) leukemia
[14] = tested on: HOP-62 NSCLC
[15] = tested on: HS 578T breast
[16] = tested on: HT29 colon
[17] = tested on: IGROV1 ovarian
[18] = tested on: K-562 leukemia
[19] = tested on: KM12 colon
[20] = tested on: M14 melanoma
[21] = tested on: MALME-3M melanoma
[22] = tested on: MCF7 breast
[23] = tested on: MDA-MB-231 breast
[24] = tested on: MDA-MB-435
[25] = tested on: MOLT-4 leukemia
[26] = tested on: NCI-H226 lung
[27] = tested on: NCI-H23 lung
[28] = tested on: NCI-H460 lung
[29] = tested on: NCI-H522 lung
[30] = tested on: NCI/ADR-RES ovarian
[31] = tested on: OVCAR-3 ovarian
[32] = tested on: OVCAR-4 ovarian
[33] = tested on: OVCAR-5 ovarian
[34] = tested on: OVCAR-8 ovarian
[35] = tested on: PC-3 prostate
[36] = tested on: RPMI-8226 leukemia
[37] = tested on: RXF 393 renal
[38] = tested on: SF-268 CNS
[39] = tested on: SF-295 CNS
[40] = tested on: SF-539 CNS
[41] = tested on: SK-MEL-28 melanoma
[42] = tested on: SK-MEL-5 melanoma
[43] = tested on: SK-OV-3 ovarian
[44] = tested on: SN12C renal
[45] = tested on: SNB-19 CNS
[46] = tested on: SNB-75 CNS
[47] = tested on: SR leukemia
[48] = tested on: SW-620 colon
[49] = tested on: T-47D breast
[50] = tested on: TK-10 renal
[51] = tested on: U251 CNS
[52] = tested on: UACC-257 melanoma
[53] = tested on: UACC-62 melanoma
[54] = tested on: UO-31 renal
[55] = tested on: EKVX NSCLC
[56] = tested on: HOP-92 NSCLC
[57] = tested on: LOX IMVI melanoma
[58] = tested on: SK-MEL-2 melanoma

## COc1ccc(-c2cc(/C=C3\C(=O)Nc4ccc(Cl)cc43)[nH]n2)cc1
[1]
  GI50: 5.28 µM
  TGI: 17.4 µM
[2]
  GI50: 3.83 µM
  TGI: 16.3 µM
[3]
  GI50: 6.54 µM
  TGI: 18.5 µM
[4]
  GI50: 5.71 µM
  TGI: 18.4 µM
[5]
  GI50: 6.85 µM
  TGI: 19.3 µM
[6]
  GI50: 3.31 µM
  TGI: 13.8 µM
[7]
  GI50: 3.32 µM
  TGI: 16.6 µM
[8]
  GI50: 2.08 µM
  TGI: 4.7 µM
[9]
  GI50: 3.89 µM
  TGI: 13.6 µM
[10]
  GI50: 9.4 µM
  TGI: 24.2 µM
[11]
  GI50: 4.13 µM
  TGI: 14.1 µM
[12]
  GI50: 2.8 µM
  TGI: 14.2 µM
[13]
  GI50: 3.04 µM
  TGI: 10.4 µM
[14]
  GI50: 4.39 µM
  TGI: 15.8 µM
[15]
  GI50: 3.52 µM
  TGI: 22.4 µM
[16]
  GI50: 3.35 µM
  TGI: 10.9 µM
[17]
  GI50: 5 µM
  TGI: 17.9 µM
[18]
  GI50: 2.56 µM
  TGI: 13.1 µM
[19]
  GI50: 3.96 µM
  TGI: 19.6 µM
[20]
  GI50: 4.02 µM
  TGI: 15.2 µM
[21]
  GI50: 6.85 µM
  TGI: 20 µM
[22]
  GI50: 2.43 µM
  TGI: 11.8 µM
[23]
  GI50: 3.58 µM
  TGI: 15.5 µM
[24]
  GI50: 1.86 µM
  TGI: 4.47 µM
[25]
  GI50: 5.13 µM
  TGI: 25.6 µM
[26]
  GI50: 12.1 µM
  TGI: 28.1 µM
[27]
  GI50: 3.73 µM
  TGI: 16.3 µM
[28]
  GI50: 3.81 µM
  TGI: 13 µM
[29]
  GI50: 2.03 µM
  TGI: 5.67 µM
[30]
  GI50: 3.85 µM
  TGI: 17.7 µM
[31]
  GI50: 3.05 µM
  TGI: 8.42 µM
[32]
  GI50: 4.31 µM
  TGI: 17.3 µM
[33]
  GI50: 8.67 µM
  TGI: 21.1 µM
[34]
  GI50: 6.59 µM
  TGI: 20 µM
[35]
  GI50: 4.03 µM
  TGI: 15.9 µM
[36]
  GI50: 4.04 µM
  TGI: 18 µM
[37]
  GI50: 5.61 µM
  TGI: 19.1 µM
[38]
  GI50: 6.48 µM
  TGI: 19.1 µM
[39]
  GI50: 3.29 µM
  TGI: 12.8 µM
[40]
  GI50: 2.63 µM
  TGI: 7.68 µM
[41]
  GI50: 6.6 µM
  TGI: 19.5 µM
[42]
  GI50: 5.17 µM
  TGI: 23.6 µM
[43]
  GI50: 4.07 µM
  TGI: 13.8 µM
[44]
  GI50: 5.51 µM
  TGI: 18.2 µM
[45]
  GI50: 10.4 µM
  TGI: 28 µM
[46]
  GI50: 2.26 µM
  TGI: 8.49 µM
[47]
  GI50: 4.24 µM
  TGI: 20.1 µM
[48]
  GI50: 4.01 µM
  TGI: 15.5 µM
[49]
  GI50: 3.62 µM
  TGI: 14.6 µM
[50]
  GI50: 8.8 µM
  TGI: 20.7 µM
[51]
  GI50: 3.16 µM
  TGI: 12.1 µM
[52]
  GI50: 8.78 µM
  TGI: 21.4 µM
[53]
  GI50: 5.56 µM
  TGI: 18.5 µM
[54]
  GI50: 4.02 µM
  TGI: 16.9 µM

## CCOC(=O)C(Cc1c[nH]c2ccc(N(CCCl)CCCl)cc12)(NC(C)=O)C(=O)OCC
[1]
  GI50: 4.78 µM and 3.71 µM
  TGI: 23.3 µM and 21.8 µM
[2]
  GI50: 20.3 µM
  TGI: 54.2 µM
[3]
  GI50: 1.8 µM and 1.04 µM
  TGI: 25.1 µM and 63.9 µM
[4]
  GI50: 0.917 µM and 0.342 µM
  TGI: 17.3 µM and 8.2 µM
[5]
  GI50: 16.3 µM and 12.2 µM
  TGI: 39.3 µM and 50.2 µM
[7]
  GI50: 1.33 µM and 1.47 µM
  TGI: 5.21 µM and 19.9 µM
[8]
  GI50: 12.2 µM and 15.3 µM
  TGI: 30.4 µM and 44.2 µM
[9]
  GI50: 14.6 µM and 7.62 µM
  TGI: 70 µM and 58.1 µM
[55]
  GI50: 52.2 µM and 38.7 µM
  TGI: 403 µM
[10]
  GI50: 12.1 µM and 13.4 µM
  TGI: 30.2 µM and 36.4 µM
[11]
  GI50: 11.7 µM and 10.9 µM
  TGI: 31.3 µM and 37.9 µM
[12]
  GI50: 14.6 µM and 16.1 µM
  TGI: 39.9 µM and 53.4 µM
[13]
  GI50: 3.29 µM and 1.43 µM
  TGI: 12.1 µM and 9.89 µM
[14]
  GI50: 14.4 µM and 10.1 µM
  TGI: 51.7 µM and 66.8 µM
[56]
  GI50: 14.1 µM
  TGI: 250 µM
[15]
  GI50: 69.5 µM and 20.9 µM
  TGI: 68.3 µM
[16]
  GI50: 16.9 µM and 13.9 µM
  TGI: 77.4 µM
[17]
  GI50: 19.4 µM
  TGI: 102 µM
[18]
  GI50: 22.7 µM and 12.2 µM
  TGI: 57.5 µM and 47.2 µM
[19]
  GI50: 22.1 µM and 14.9 µM
  TGI: 83.5 µM and 36.3 µM
[57]
  GI50: 7.09 µM and 4.88 µM
  TGI: 24.6 µM and 35.3 µM
[20]
  GI50: 12.3 µM
  TGI: 116 µM
[21]
  GI50: 11.1 µM
  TGI: 28.3 µM
[22]
  GI50: 2.42 µM and 3.11 µM
  TGI: 26.8 µM and 96.6 µM
[23]
  GI50: 24.6 µM and 33.3 µM
  TGI: 81.2 µM and 575 µM
[24]
  GI50: 16.9 µM
  TGI: 33.1 µM
[25]
  GI50: 2.88 µM and 0.957 µM
  TGI: 13 µM and 26.2 µM
[26]
  GI50: 14.1 µM and 19.4 µM
  TGI: 41.4 µM and 67.9 µM
[27]
  GI50: 5.99 µM and 9.89 µM
  TGI: 31.2 µM and 64.8 µM
[28]
  GI50: 1.82 µM and 0.765 µM
  TGI: 17.7 µM and 132 µM
[29]
  GI50: 0.17 µM
  TGI: 1.93 µM
[30]
  GI50: 14.6 µM and 11.7 µM
  TGI: 47.3 µM and 64.3 µM
[31]
  GI50: 23.4 µM and 14.4 µM
  TGI: 65.7 µM and 35.1 µM
[32]
  GI50: 53 µM and 47.8 µM
  TGI: 682 µM
[33]
  GI50: 30.8 µM and 25.2 µM
  TGI: 67 µM and 75.7 µM
[34]
  GI50: 14.3 µM and 19.8 µM
  TGI: 45 µM
[35]
  GI50: 3.84 µM and 18.5 µM
  TGI: 48.1 µM and 332 µM
[36]
  GI50: 6.41 µM
  TGI: 33.4 µM
[38]
  GI50: 5.21 µM
  TGI: 46.5 µM
[39]
  GI50: 5.41 µM and 4.2 µM
  TGI: 32 µM and 232 µM
[40]
  GI50: 3.18 µM and 6.88 µM
  TGI: 12.6 µM and 30.3 µM
[58]
  GI50: 5.04 µM and 27.6 µM
  TGI: 19.3 µM and 65.9 µM
[41]
  GI50: 31.6 µM and 23 µM
  TGI: 238 µM
[42]
  GI50: 7.34 µM and 24.5 µM
  TGI: 25.5 µM and 137 µM
[43]
  GI50: 22.6 µM and 17.5 µM
  TGI: 99.4 µM and 131 µM
[44]
  GI50: 8.82 µM and 8.93 µM
  TGI: 564 µM
[45]
  GI50: 19.6 µM
  TGI: 312 µM
[46]
  GI50: 11.5 µM and 6.53 µM
  TGI: 67.9 µM and 57 µM
[47]
  GI50: 1.86 µM
  TGI: 7.14 µM
[48]
  GI50: 8.78 µM and 13.2 µM
  TGI: 93.6 µM and 46.8 µM
[49]
  GI50: 9.31 µM and 6.59 µM
  TGI: 51.9 µM and > 71.8 µM
[50]
  GI50: 22.2 µM and 17.6 µM
  TGI: 60.5 µM and 62.7 µM
[51]
  GI50: 10.6 µM and 7.88 µM
  TGI: 35.4 µM and 35.3 µM
[52]
  GI50: 17.6 µM and 23.9 µM
  TGI: 52.6 µM and 94 µM
[53]
  GI50: 12.1 µM
  TGI: 26 µM
[54]
  GI50: 20.7 µM and 10.5 µM
  TGI: 53.8 µM and 46 µM
